{
  "source": "paper PMC4904262",
  "about": "(ACS Medicinal Chemistry Letters, 2016)",
  "key": {"[1]": {"target": "EPHB3 (Homo sapiens, UniProt P54753)", "sequence (P54753 34-998)": "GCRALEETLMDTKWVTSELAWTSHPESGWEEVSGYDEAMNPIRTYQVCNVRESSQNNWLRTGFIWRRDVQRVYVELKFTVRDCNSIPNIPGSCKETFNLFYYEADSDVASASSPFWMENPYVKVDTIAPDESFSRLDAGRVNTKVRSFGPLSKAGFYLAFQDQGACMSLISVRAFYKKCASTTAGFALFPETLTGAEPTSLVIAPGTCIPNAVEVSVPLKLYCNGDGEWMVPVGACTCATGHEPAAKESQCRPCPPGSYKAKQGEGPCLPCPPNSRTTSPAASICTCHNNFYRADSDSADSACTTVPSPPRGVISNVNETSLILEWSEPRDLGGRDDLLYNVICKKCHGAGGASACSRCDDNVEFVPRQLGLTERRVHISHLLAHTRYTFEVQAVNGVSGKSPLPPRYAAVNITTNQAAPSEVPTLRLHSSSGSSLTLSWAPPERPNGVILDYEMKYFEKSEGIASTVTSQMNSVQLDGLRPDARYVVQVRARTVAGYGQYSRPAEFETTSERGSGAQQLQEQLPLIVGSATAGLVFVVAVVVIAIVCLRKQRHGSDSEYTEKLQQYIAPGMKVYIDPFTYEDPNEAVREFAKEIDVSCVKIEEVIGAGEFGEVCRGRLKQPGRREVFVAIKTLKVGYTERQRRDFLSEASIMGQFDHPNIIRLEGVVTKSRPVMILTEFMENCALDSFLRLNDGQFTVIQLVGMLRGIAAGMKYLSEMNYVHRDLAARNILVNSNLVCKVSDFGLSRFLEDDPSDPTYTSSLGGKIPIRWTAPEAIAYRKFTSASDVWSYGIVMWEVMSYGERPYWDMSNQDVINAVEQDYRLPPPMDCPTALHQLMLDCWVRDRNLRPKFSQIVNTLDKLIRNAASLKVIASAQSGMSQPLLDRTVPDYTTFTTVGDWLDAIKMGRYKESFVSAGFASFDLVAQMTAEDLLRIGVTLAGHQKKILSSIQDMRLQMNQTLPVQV", "settings": "1 µM, ATP at Km"}, "[2]": {"target": "PKA (Homo sapiens, UniProt P17612)", "settings": "1 µM, ATP at Km"}, "[3]": {"assay": "in vitro", "settings": "mouse, microsomes"}, "[4]": {"target": "HIPK2 (Homo sapiens, UniProt Q9H2X6)", "sequence (Q9H2X6 whole entry)": "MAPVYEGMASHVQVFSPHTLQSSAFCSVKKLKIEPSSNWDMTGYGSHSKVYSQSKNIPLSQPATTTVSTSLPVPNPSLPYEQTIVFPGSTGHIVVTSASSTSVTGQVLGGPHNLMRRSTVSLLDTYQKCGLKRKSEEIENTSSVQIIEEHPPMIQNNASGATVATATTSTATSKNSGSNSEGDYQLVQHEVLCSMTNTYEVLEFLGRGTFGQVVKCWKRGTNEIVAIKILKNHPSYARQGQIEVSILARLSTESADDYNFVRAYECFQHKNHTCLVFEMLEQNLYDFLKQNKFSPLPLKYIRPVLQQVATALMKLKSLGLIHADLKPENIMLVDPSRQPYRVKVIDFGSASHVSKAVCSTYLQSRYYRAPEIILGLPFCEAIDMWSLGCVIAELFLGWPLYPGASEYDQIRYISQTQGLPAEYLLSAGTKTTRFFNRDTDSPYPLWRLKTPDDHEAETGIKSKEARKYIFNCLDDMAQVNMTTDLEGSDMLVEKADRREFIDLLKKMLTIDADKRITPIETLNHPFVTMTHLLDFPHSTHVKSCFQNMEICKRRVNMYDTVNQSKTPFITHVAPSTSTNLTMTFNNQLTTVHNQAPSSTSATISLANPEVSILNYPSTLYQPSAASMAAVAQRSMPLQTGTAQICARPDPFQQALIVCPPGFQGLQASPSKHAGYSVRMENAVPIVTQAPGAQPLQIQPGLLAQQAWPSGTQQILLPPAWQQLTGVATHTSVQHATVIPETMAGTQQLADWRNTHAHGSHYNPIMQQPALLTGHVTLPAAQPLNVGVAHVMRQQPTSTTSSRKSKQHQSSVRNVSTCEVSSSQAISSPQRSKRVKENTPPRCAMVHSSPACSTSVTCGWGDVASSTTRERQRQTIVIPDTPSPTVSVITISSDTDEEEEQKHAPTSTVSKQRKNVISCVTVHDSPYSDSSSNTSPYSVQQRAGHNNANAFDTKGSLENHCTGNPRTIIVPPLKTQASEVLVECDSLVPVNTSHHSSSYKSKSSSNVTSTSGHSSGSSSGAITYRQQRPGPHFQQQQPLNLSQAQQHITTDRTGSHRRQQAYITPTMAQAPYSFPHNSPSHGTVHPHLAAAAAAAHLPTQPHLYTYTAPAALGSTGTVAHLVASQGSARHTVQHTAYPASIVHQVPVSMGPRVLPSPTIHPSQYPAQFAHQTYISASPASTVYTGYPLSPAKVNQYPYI", "settings": "1 µM, ATP at Km"}, "[5]": {"target": "PAK4 (Homo sapiens, UniProt O96013)", "sequence (O96013 whole entry)": "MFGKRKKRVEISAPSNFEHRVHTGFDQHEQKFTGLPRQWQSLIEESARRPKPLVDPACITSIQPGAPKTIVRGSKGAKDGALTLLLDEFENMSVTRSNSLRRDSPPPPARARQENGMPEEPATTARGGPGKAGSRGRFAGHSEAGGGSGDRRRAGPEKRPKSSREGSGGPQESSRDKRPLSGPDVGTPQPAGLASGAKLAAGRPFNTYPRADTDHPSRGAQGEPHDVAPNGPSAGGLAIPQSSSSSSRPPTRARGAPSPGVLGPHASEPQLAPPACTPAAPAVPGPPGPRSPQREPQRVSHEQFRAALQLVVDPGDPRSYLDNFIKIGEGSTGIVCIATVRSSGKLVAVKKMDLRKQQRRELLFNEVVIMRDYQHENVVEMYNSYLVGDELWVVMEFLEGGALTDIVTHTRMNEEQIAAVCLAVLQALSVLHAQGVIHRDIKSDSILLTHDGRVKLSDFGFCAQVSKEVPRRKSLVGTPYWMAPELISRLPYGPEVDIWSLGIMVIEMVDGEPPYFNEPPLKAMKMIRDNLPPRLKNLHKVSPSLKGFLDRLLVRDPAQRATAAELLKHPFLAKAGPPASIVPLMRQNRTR", "settings": "1 µM, ATP at Km"}, "[6]": {"target": "PKCMU (Homo sapiens, UniProt Q15139)", "settings": "1 µM, ATP at Km"}, "[7]": {"target": "CDK9/CYCLINT1 (Homo sapiens, UniProt P50750)", "settings": "1 µM, ATP at Km"}, "[8]": {"target": "EGFR (Homo sapiens, UniProt P00533)", "sequence (P00533 25-1210)": "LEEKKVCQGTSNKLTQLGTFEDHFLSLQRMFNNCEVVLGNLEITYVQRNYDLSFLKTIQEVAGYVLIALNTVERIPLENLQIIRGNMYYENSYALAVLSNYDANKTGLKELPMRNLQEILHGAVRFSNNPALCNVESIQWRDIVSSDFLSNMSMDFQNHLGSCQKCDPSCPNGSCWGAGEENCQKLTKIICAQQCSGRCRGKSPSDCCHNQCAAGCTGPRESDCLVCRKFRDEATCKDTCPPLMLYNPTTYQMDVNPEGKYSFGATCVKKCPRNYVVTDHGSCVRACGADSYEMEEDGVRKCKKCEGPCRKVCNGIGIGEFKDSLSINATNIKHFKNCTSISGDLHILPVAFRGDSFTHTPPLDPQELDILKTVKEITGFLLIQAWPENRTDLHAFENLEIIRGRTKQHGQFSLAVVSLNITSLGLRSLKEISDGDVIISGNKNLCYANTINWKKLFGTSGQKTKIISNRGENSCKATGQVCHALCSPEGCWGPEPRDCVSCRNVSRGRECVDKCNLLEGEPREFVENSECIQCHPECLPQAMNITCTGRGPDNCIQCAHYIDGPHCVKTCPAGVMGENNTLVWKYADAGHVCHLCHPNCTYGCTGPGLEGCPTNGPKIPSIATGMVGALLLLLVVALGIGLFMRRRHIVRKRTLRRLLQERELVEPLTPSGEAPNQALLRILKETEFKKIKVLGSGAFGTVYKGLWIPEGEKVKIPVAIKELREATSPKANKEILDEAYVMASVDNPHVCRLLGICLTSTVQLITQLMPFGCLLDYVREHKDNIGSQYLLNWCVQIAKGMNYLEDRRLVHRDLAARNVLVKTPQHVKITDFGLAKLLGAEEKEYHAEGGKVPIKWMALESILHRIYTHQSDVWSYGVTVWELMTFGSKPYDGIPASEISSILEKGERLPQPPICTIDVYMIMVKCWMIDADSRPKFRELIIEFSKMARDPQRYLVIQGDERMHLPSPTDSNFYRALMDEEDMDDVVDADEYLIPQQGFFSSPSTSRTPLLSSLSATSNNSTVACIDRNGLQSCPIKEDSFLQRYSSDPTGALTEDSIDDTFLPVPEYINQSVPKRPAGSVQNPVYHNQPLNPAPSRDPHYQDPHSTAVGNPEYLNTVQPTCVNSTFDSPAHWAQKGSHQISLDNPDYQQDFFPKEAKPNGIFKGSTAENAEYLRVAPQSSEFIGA", "settings": "1 µM, ATP at Km"}, "[9]": {"target": "CLK2 (Homo sapiens, UniProt P49760)", "sequence (P49760 whole entry)": "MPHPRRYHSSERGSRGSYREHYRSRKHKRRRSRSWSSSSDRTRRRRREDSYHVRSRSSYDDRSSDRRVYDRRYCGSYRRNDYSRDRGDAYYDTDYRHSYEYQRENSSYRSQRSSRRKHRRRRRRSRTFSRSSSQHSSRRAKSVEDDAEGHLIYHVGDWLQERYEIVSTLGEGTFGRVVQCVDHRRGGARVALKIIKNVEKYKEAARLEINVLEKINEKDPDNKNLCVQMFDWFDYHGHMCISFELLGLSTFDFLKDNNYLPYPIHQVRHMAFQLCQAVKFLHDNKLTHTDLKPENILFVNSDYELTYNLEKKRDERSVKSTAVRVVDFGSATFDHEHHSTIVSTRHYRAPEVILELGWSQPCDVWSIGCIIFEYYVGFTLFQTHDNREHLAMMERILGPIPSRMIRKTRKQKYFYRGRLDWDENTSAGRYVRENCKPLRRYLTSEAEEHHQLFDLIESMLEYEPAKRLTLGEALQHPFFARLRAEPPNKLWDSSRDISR", "settings": "1 µM, ATP at Km"}, "[10]": {"target": "aldehyde oxidase (Homo sapiens, UniProt Q06278)"}, "[11]": {"settings": "rat, in vivo, 0.2 mg/kg"}, "[12]": {"target": "MAPKAP-K3 (Homo sapiens, UniProt Q16644)", "settings": "1 µM, ATP at Km"}, "[13]": {"target": "CK2ALPHA2 (Homo sapiens, UniProt P19784)", "sequence (P19784 whole entry)": "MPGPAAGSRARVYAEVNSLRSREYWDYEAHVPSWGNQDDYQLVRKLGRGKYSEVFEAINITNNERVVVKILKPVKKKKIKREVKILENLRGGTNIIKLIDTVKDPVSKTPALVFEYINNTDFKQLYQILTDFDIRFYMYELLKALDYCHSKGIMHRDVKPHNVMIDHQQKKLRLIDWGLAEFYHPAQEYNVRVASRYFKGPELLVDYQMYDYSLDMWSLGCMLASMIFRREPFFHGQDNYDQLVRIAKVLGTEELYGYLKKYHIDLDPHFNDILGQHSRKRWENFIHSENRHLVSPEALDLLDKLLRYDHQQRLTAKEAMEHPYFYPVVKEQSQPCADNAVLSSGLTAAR", "settings": "1 µM, ATP at Km"}, "[14]": {"assay": "in vitro", "settings": "human, microsomes"}, "[15]": {"target": "P70S6K (Homo sapiens, UniProt P23443)", "settings": "1 µM, ATP at Km"}, "[16]": {"target": "MAPKAP-K2 (Homo sapiens, UniProt P49137)", "settings": "1 µM, ATP at Km"}, "[17]": {"target": "CHK2 (Homo sapiens, UniProt O96017)", "settings": "1 µM, ATP at Km"}, "[18]": {"system": "Caco-2", "settings": "human"}, "[19]": {"assay": "in vivo", "settings": "mouse"}, "[20]": {"target": "CKIT(V654A) (Homo sapiens, UniProt P10721, V654A)", "settings": "1 µM, ATP at Km"}, "[21]": {"system": "CK1(Y)", "settings": "1 µM, ATP at Km"}, "[22]": {"target": "CKIT(D816H) (Homo sapiens, UniProt P10721, D816H)", "settings": "1 µM, ATP at Km"}, "[23]": {"target": "FGFR2(N549H) (Homo sapiens, UniProt P21802, N549H)", "settings": "1 µM, ATP at Km"}, "[24]": {"target": "ABL (Q252H) (Homo sapiens, UniProt P00519, Q252H)", "settings": "1 µM, ATP at Km"}, "[25]": {"target": "HCK (Homo sapiens, UniProt P08631)", "settings": "HCK (second listing, page 11); 1 µM; ATP at Km"}, "[26]": {"target": "FGFR1(V561M) (Homo sapiens, UniProt P11362, V561M)", "settings": "1 µM, ATP at Km"}, "[27]": {"target": "cMET (Y1248D) (Homo sapiens, UniProt P08581, Y1230D)", "settings": "1 µM, ATP at Km"}, "[28]": {"target": "SRC(1-530) (Homo sapiens, UniProt P12931)", "settings": "1 µM, ATP at Km"}, "[29]": {"target": "MKK4 (Mus musculus, UniProt P47809)", "settings": "1 µM, ATP at Km"}, "[30]": {"target": "RET(V804M) (Homo sapiens, UniProt P07949, V804M)", "settings": "1 µM, ATP at Km"}, "[31]": {"target": "FMS(Y969C) (Homo sapiens, UniProt P07333, Y969C)", "settings": "1 µM, ATP at Km"}, "[32]": {"target": "ABL(Y253F) (Homo sapiens, UniProt P00519, Y253F)", "settings": "1 µM, ATP at Km"}, "[33]": {"target": "cMET (D1246N) (Homo sapiens, UniProt P08581, D1228N)", "settings": "1 µM, ATP at Km"}, "[34]": {"target": "SAPK2A(T106M) (Homo sapiens, UniProt Q16539, T106M)", "settings": "1 µM, ATP at Km"}, "[35]": {"target": "[…](V561D) (Homo sapiens, UniProt P16234, V561D)", "settings": "1 µM, ATP at Km"}, "[36]": {"target": "CKIT(V560G) (Homo sapiens, UniProt P10721, V560G)", "settings": "1 µM, ATP at Km"}, "[37]": {"target": "TIE2(R849W) (Homo sapiens, UniProt Q02763, R849W)", "settings": "1 µM, ATP at Km"}, "[38]": {"target": "cMET (D1246H) (Homo sapiens, UniProt P08581, D1228H)", "settings": "1 µM, ATP at Km"}, "[39]": {"target": "CHK2(R145W) (Homo sapiens, UniProt O96017, R145W)", "settings": "1 µM, ATP at Km"}, "[40]": {"target": "cMET (Y1248C) (Homo sapiens, UniProt P08581, Y1230C)", "settings": "1 µM, ATP at Km"}, "[41]": {"target": "cMET (Y1248H) (Homo sapiens, UniProt P08581, Y1230H)", "settings": "1 µM, ATP at Km"}},
  "data": [
    {"compound": "COC1CN(C(=O)c2ccc3c(N)ncc(-c4ccc(-c5cnn(C)c5)cc4)c3n2)C1", "note": "[Compound 51]", "values": [
      {"measurement": "percentage effect", "setting": "[1]", "value": 2, "unit": "%"},
      {"measurement": "percentage effect", "setting": "[2]", "value": -1, "unit": "%"},
      {"measurement": "microsomal CLint at 1 µM", "setting": "[3]", "value": 52, "unit": "µL/min/mg"},
      {"measurement": "percentage effect", "setting": "[4]", "value": -8, "unit": "%"},
      {"measurement": "percentage effect", "setting": "[5]", "value": 4, "unit": "%"},
      {"measurement": "percentage effect", "setting": "[6]", "value": -3, "unit": "%"},
      {"measurement": "percentage effect", "setting": "[7]", "value": 8, "unit": "%"},
      {"measurement": "percentage effect", "setting": "[8]", "value": -45, "unit": "%"},
      {"measurement": "percentage effect", "setting": "[9]", "value": -18, "unit": "%"},
      {"measurement": "AO substrate (Enzyme assay)", "setting": "[10]", "value": "No"},
      {"measurement": "% in feces (iv dosing)", "setting": "[11]", "value": 36, "unit": "%"},
      {"measurement": "percentage effect", "setting": "[12]", "value": -15, "unit": "%"},
      {"measurement": "percentage effect", "setting": "[13]", "value": 0, "unit": "%"},
      {"measurement": "microsomal CLint at 1 µM", "setting": "[14]", "value": 61, "unit": "µL/min/mg"},
      {"measurement": "percentage effect", "setting": "[15]", "value": -25, "unit": "%"},
      {"measurement": "percentage effect", "setting": "[16]", "value": 6, "unit": "%"},
      {"measurement": "percentage effect", "setting": "[17]", "value": -1, "unit": "%"},
      {"measurement": "Caco-2 ER", "setting": "[18]", "value": 5.9},
      {"measurement": "Caco-2 PappA-B", "setting": "[18]", "value": "28.6 × 10^–6 cm/s"},
      {"measurement": "Vd", "setting": "[19]; iv, 0.2 mg/kg", "value": 1.87, "unit": "L/kg"},
      {"measurement": "clearance", "setting": "[19]; iv, 0.2 mg/kg", "value": 32.3, "unit": "mL/min/kg"},
      {"measurement": "bioavailability", "setting": "[19]; po, 0.5 mg/kg", "value": 18, "unit": "%"}
    ]},
    {"compound": "COC1CN(C(=O)c2ccc3c(N)ncc(-c4ccc(-c5cnn(C)c5)cc4)c3c2)C1", "note": "[Compound 59]", "values": [
      {"measurement": "percentage effect", "setting": "[20]", "value": 6, "unit": "%"},
      {"measurement": "percentage effect", "setting": "[1]", "value": -10, "unit": "%"},
      {"measurement": "percentage effect", "setting": "[21]", "value": 4, "unit": "%"},
      {"measurement": "percentage effect", "setting": "[22]", "value": -1, "unit": "%"},
      {"measurement": "percentage effect", "setting": "[23]", "value": -14, "unit": "%"},
      {"measurement": "percentage effect", "setting": "[4]", "value": 16, "unit": "%"},
      {"measurement": "percentage effect", "setting": "[24]", "value": 9, "unit": "%"},
      {"measurement": "percentage effect", "setting": "[25]", "value": 0, "unit": "%"},
      {"measurement": "percentage effect", "setting": "[5]", "value": 10, "unit": "%"},
      {"measurement": "percentage effect", "setting": "[26]", "value": -6, "unit": "%"},
      {"measurement": "percentage effect", "setting": "[27]", "value": 19, "unit": "%"},
      {"measurement": "percentage effect", "setting": "[6]", "value": 10, "unit": "%"},
      {"measurement": "percentage effect", "setting": "[28]", "value": -3, "unit": "%"},
      {"measurement": "percentage effect", "setting": "[8]", "value": 14, "unit": "%"},
      {"measurement": "percentage effect", "setting": "[9]", "value": -3, "unit": "%"},
      {"measurement": "percentage effect", "setting": "[29]", "value": 3, "unit": "%"},
      {"measurement": "percentage effect", "setting": "[30]", "value": 7, "unit": "%"},
      {"measurement": "percentage effect", "setting": "[31]", "value": -31, "unit": "%"},
      {"measurement": "percentage effect", "setting": "[32]", "value": -6, "unit": "%"},
      {"measurement": "percentage effect", "setting": "[33]", "value": 3, "unit": "%"},
      {"measurement": "percentage effect", "setting": "[13]", "value": 13, "unit": "%"},
      {"measurement": "percentage effect", "setting": "[34]", "value": 1, "unit": "%"},
      {"measurement": "percentage effect", "setting": "[35]", "value": -9, "unit": "%"},
      {"measurement": "percentage effect", "setting": "[36]", "value": -21, "unit": "%"},
      {"measurement": "percentage effect", "setting": "[37]", "value": -12, "unit": "%"},
      {"measurement": "percentage effect", "setting": "[17]", "value": -10, "unit": "%"},
      {"measurement": "percentage effect", "setting": "[38]", "value": 1, "unit": "%"},
      {"measurement": "percentage effect", "setting": "[39]", "value": -6, "unit": "%"},
      {"measurement": "percentage effect", "setting": "[40]", "value": -19, "unit": "%"},
      {"measurement": "percentage effect", "setting": "[41]", "value": 6, "unit": "%"}
    ]}
  ]
}
